Data: patent publication US11708367B2, “Compounds for the treatment of kinase-dependent disorders” (Exelixis, Inc., priority 2018, dated 2023)

Tests used:
Assay type in all cases: cell-based
AXL = AXL (Homo sapiens (Human), UniProt P30530); assay: AXL autophosphorylation ELISA in A-172 cells; details: cellular, Gas6-stimulated, phospho-AXL ELISA
Outline: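 A-172 glioblastoma cells, serum-starved 24 h, got 8-point compound dilutions (0.3% DMSO) for 1 h, then 1 μg/mL human Gas6 for 15 min. Phospho-AXL in lysates was quantified by ELISA against a standard, normalized between DMSO and reference-inhibitor controls; IC50 by 4-parameter logistic fit.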

Mer = Mer (Homo sapiens (Human), UniProt Q12866); assay: Mer autophosphorylation ELISA in transient transfected 293A cells; details: cellular, MERTK-transfected 293A cells, phospho-Mer ELISA
Experimental: 293A cells (Thermo Fisher #R70507) were seeded at 1.5×10^6 cells/well onto 100 mm dish (Greiner #664169), in DMEM (Thermo Fisher #11995-040) containing 10% FBS (Thermo Fisher #26140-079), 1% MEM NEAA (Thermo Fisher #11140-050), 1% GlutaMax (Thermo Fisher #35050-061), and 1% Penicillin Streptomycin (Thermo Fisher #15140-122). 293A cells were incubated at 37° C., 5% CO2 for 24 h and then transfected with 6 μg MERTK DNA (Genecopoeia #EX-Z8208-M02) using TransIT LT1 transfection reagent (Mirus-Bio #MIR2305). After 24 h incubation, the transfected 293A cells were seeded at 1×10^5 cells/well onto 96-well plates (Corning #3904) in DMEM growth medium overnight. Test compounds were serially diluted to produce an 8-point dose curve in fresh serum-free medium to a final concentration of 0.3% DMSO (vehicle) and added to the cells and incubated for 1 h. Cells were then immediately lysed with 150 μL of cold IX lysis buffer [20 mM Tris, 137 mM sodium chloride, 2 mM EDTA, 10% glycerol, 1% NP-40 alternative, 1 mM activated sodium orthovanadate, 1 mM PefaBloc SC (Sigma-Aldrich #11429868001), protease/phosphatase inhibitor tablet (Thermo Fisher #A32959)]. Lysates were clarified by centrifugation and 50 μL/well added into the human phospho-Mer DuoSet IC ELISA (R&D Systems #DYC2579-2). Assay was performed according to manufacturer's instructions and sample phospho-Mer concentrations were extrapolated using human phospho-Mer control (R&D Systems #841793) as a standard. Positive control wells (100% activity) contained DMSO-treated cell lysates. Negative control wells (0% activity) contained reference inhibitor-treated cell lysates. IC50 values were calculated by nonlinear regression analysis using a 4-parameter logistic curve fit in ActivityBase XE (IDBS).

Met = Met (Homo sapiens (Human), UniProt P08581); assay: Met autophosphorylation ELISA in PC-3 cells; details: cellular, HGF-stimulated, phospho-Met ELISA, read-out: c-Met IC50
Outline: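 Serum-starved PC-3 cells treated 1 h with compound (8-point series, 0.3% DMSO), then stimulated 10 min with 100 ng/mL HGF. Phospho-Met (panTyr) quantified in lysates by sandwich ELISA; IC50 from 4-parameter logistic fit against DMSO and reference-inhibitor controls.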

KDR = KDR (Homo sapiens (Human), UniProt P35968); assay: KDR autophosphorylation ELISA in HUVEC cells; details: cellular, VEGF165-stimulated, phospho-KDR ELISA
Outline: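 Serum-starved (24 h) HUVECs were pre-treated with compound (8-point dose curve, 0.3% DMSO final) for 1 h, then stimulated with 100 ng/mL human VEGF165 for 5 min. Lysate phospho-KDR was quantified by ELISA against a phospho-KDR standard. IC50 came from a 4-parameter logistic fit, normalized to stimulated-DMSO (100%) and unstimulated (0%) controls.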

AXL, sequence (P30530 26-894): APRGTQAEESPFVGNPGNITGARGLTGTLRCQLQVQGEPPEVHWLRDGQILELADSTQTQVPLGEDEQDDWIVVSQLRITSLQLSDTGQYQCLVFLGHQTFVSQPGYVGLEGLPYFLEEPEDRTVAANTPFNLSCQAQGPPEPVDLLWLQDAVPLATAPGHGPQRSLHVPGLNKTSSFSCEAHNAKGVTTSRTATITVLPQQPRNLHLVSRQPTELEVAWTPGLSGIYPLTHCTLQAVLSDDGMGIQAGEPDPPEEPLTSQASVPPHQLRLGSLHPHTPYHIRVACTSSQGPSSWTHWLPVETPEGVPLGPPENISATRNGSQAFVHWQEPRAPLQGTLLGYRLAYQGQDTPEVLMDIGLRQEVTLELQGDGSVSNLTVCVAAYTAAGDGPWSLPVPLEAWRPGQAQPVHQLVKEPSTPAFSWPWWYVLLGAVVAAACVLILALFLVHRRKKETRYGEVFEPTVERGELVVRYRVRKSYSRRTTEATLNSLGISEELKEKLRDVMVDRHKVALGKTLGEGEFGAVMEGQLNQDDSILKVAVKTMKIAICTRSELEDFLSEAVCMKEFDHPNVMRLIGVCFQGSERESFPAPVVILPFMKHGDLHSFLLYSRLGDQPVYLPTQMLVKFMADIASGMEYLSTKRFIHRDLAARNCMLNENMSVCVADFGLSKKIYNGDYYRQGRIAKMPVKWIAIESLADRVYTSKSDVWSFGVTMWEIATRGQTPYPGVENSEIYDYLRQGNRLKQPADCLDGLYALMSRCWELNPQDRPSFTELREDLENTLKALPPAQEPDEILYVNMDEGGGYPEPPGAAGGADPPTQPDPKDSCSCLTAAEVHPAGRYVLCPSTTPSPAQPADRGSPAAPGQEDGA
KDR, sequence (P35968 20-1356): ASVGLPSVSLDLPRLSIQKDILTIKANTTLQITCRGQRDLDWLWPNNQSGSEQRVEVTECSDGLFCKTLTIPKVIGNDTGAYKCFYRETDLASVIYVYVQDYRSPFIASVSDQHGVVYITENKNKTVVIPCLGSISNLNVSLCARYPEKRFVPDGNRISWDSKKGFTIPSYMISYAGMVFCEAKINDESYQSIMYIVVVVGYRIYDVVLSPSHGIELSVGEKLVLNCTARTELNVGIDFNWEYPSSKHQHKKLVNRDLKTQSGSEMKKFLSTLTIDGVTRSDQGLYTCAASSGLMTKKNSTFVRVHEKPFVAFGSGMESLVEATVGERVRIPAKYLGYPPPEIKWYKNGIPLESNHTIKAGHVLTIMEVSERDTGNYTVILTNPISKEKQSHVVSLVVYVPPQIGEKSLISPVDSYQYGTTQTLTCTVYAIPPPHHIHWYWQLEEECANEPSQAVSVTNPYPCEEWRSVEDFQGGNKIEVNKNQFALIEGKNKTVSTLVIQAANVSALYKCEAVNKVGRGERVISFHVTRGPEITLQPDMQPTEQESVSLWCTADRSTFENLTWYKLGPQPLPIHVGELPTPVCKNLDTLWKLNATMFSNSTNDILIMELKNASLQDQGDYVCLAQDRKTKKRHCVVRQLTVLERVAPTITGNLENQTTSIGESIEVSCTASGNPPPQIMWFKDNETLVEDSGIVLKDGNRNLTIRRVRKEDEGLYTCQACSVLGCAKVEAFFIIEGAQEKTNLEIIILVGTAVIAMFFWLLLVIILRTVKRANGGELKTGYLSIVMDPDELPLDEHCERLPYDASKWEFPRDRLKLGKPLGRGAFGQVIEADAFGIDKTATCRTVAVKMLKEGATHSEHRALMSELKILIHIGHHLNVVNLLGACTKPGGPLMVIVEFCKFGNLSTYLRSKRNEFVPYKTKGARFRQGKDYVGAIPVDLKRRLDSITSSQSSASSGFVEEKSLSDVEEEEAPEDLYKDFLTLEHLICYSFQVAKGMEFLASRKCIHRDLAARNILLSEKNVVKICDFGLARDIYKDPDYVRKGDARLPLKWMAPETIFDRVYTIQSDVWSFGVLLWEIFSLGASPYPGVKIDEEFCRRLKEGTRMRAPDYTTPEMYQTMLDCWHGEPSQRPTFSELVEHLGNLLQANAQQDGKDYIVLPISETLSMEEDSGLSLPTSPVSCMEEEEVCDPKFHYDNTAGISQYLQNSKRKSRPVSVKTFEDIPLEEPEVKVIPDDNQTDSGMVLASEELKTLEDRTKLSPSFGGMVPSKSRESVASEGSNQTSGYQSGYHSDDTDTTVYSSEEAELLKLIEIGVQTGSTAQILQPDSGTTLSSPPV
Met, sequence (P08581 25-1390): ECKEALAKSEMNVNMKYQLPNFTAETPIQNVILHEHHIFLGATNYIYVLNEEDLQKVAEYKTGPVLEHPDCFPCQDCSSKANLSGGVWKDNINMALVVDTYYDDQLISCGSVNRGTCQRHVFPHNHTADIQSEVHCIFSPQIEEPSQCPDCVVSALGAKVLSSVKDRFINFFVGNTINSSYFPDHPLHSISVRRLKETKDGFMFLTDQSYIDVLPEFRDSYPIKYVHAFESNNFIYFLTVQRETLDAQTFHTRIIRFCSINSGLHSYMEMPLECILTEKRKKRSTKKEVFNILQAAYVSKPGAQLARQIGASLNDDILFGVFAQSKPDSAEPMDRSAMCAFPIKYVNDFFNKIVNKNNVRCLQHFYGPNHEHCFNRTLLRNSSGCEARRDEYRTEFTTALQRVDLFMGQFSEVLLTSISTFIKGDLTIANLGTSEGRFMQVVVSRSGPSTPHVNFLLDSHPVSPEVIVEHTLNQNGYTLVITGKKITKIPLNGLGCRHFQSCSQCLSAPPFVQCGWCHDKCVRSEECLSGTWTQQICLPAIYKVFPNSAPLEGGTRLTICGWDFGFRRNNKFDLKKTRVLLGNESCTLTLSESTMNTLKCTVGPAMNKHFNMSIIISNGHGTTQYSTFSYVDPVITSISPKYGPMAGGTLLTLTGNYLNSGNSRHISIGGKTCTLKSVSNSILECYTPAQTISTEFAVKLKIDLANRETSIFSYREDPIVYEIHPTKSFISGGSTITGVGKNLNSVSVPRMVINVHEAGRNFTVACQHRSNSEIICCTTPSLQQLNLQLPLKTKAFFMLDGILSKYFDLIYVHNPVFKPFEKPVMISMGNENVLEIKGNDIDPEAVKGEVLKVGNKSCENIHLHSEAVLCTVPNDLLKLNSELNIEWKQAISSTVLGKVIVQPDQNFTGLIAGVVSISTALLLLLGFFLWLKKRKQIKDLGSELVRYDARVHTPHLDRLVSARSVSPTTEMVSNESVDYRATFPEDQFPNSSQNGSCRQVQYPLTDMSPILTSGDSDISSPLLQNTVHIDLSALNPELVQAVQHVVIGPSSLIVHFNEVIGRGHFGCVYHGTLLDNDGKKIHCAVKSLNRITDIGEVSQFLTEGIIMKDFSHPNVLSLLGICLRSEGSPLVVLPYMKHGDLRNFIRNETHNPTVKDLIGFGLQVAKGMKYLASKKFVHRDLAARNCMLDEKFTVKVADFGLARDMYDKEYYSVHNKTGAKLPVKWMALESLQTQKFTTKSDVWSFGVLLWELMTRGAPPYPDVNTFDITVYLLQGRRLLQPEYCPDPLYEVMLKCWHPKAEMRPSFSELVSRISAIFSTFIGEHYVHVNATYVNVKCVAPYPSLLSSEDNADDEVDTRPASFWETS
Mer, sequence (Q12866 21-999): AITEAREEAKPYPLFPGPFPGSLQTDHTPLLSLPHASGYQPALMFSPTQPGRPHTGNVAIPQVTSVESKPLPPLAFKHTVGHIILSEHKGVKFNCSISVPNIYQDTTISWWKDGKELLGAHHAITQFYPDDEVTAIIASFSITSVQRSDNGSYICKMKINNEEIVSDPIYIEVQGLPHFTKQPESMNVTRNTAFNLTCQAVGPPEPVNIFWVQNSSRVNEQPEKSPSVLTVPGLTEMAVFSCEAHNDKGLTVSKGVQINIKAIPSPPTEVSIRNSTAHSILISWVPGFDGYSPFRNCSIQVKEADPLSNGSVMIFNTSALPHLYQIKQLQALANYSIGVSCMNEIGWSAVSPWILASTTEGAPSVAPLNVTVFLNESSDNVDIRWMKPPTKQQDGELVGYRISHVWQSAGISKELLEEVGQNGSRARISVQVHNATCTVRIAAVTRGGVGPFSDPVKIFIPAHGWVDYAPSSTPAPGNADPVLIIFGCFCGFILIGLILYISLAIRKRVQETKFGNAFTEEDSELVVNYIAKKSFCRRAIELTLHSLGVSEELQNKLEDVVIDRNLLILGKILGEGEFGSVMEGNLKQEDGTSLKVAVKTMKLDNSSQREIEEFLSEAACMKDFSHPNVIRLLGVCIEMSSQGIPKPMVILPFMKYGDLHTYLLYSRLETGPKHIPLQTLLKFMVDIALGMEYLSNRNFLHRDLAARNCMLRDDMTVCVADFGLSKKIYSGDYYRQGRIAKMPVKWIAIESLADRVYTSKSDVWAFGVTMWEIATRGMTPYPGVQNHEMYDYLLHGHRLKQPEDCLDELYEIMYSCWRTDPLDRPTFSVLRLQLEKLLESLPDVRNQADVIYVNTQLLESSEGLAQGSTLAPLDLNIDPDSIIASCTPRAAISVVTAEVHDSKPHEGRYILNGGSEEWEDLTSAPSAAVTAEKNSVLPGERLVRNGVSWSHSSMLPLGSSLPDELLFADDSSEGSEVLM

SMILES	IC50 (AXL) [nM]	IC50 (Mer) [nM]	IC50 (Met) [nM]	IC50 (KDR) [nM]
COc1nc2c(Oc3c(F)cc(NC(=O)C4(C(=O)Nc5ccc(F)cc5)CC4)cc3F)ncnc2cc1OCCCN1CCOCC1 [Compound 76, 1-N′-[3,5-difluoro-4-[6-methoxy-7-(3-morpholin-4-ylpropoxy)pyrido[3,2-d]pyrimidin-4-yl]oxyphenyl]-1-N-(4-fluorophenyl)cyclo-propane-1,1-dicarboxamide]	≤ 10	≤ 10	10 to 100	10 to 100
COCCOc1cc2ncnc(Oc3ccc(NC(=O)C4(C(=O)Nc5ccc(F)cc5)CC4)cc3F)c2nc1OC [Compound 79, 1-N′-[3-fluoro-4-[6-methoxy-7-(2-methoxyethoxy)pyrido[3,2-d]pyrimidin-4-yl]oxy-phenyl]-1-N-(4-fluorophenyl)cyclopropane-1,1-dicarboxamide]	≤ 10	≤ 10	10 to 100	≤ 10
COCCOc1cc2ncnc(Oc3ccc(NC(=O)C4(C(=O)Nc5ccc(F)cc5)CC4)cc3Cl)c2nc1OC [Compound 80, 1-N′-[3-chloro-4-[6-methoxy-7-(2-methoxyethoxy)pyrido[3,2-d]pyrimidin-4-yl]oxy-phenyl]-1-N-(4-fluorophenyl)cyclo-propane-1,1-dicarboxamide]	10 to 100	≤ 10	10 to 100	≤ 10
COCCOc1cc2ncnc(Oc3ccc(NC(=O)C4(C(=O)Nc5ccc(F)cc5)CC4)c(F)c3)c2nc1OC [Compound 81, 1-N′-[2-fluoro-4-[6-methoxy-7-(2-methoxyethoxy)pyrido[3,2-d]pyrimidin-4-yl]oxy-phenyl]-1-N-(4-fluorophenyl)cyclopropane-1,1-dicarboxamide]	≤ 10	≤ 10	10 to 100	10 to 100

The next lines start with the values.

IC50 (AXL) [nM]	IC50 (Mer) [nM]	IC50 (Met) [nM]	IC50 (KDR) [nM]	SMILES
≤ 10	10 to 100	10 to 100	≤ 10	COCCOc1cc2ncnc(Oc3ccc(NC(=O)C4(C(=O)Nc5ccc(F)cc5)CC4)c(F)c3F)c2nc1OC [Compound 82, 1-N′-[2,3-difluoro-4-[6-methoxy-7-(2-methoxy-ethoxy)pyrido[3,2-d]pyrimidin-4-yl]oxyphenyl]-1-N-(4-fluorophenyl)cyclo-propane-1,1-dicarboxamide]
≤ 10	≤ 10	10 to 100	≤ 10	COCCOc1cc2ncnc(Oc3cc(F)c(NC(=O)C4(C(=O)Nc5ccc(F)cc5)CC4)cc3F)c2nc1OC [Compound 83, 1-N′-[2,5-difluoro-4-[6-methoxy-7-(2-methoxy-ethoxy)pyrido[3,2-d]pyrimidin-4-yl]oxyphenyl]-1-N-(4-fluorophenyl)cyclopropane-1,1-dicarboxamide]
10 to 100	100 to 300	100 to 300	100 to 300	Cn1cc(-c2cnc3c(Oc4ccc(NC(=O)C5(C(=O)Nc6ccc(F)cc6)CC5)cc4)ncnc3c2)cn1 [Compound 129, 1-N′-(4-fluorophenyl)-1-N-[4-[7-(1-methylpyrazol-4-yl)pyrido[3,2-d]pyrimidin-4-yl]oxyphenyl]cyclo-propane-1,1-dicarboxamide]
10 to 100	10 to 100	10 to 100	≤ 10	Cn1cc(-c2cc3ncnc(Oc4ccc(NC(=O)C5(C(=O)Nc6ccc(F)cc6)CC5)cc4)c3cn2)cn1 [Compound 130, 1-N′-(4-fluorophenyl)-1-N-[4-[7-(1-methylpyrazol-4-yl)pyrido[4,3-d]pyrimidin-4-yl]oxyphenyl]cyclopropane-1,1-dicarboxamide]
≤ 10	≤ 10	10 to 100	≤ 10	COCCOc1cc2nccc(Oc3ccc(NC(=O)C4(C(=O)Nc5ccc(F)cc5)CC4)cc3)c2nc1OC [Compound 149, 1-N′-(4-fluorophenyl)-1-N-[4-[[6-methoxy-7-(2-methoxyethoxy)-1,5-naphthyridin-4-yl]oxy]phenyl]cyclopropane-1,1-dicarboxamide]
